From ChEMBL document CHEMBL1136173, “Synthesis and nicotinic binding of novel phenyl derivatives of UB-165. Identifying factors associated with alpha7 selectivity” (Bioorg Med Chem Lett, 2003)

What was measured:
[1] = target: Neuronal acetylcholine receptor subunit alpha-7 (Rattus norvegicus, UniProt Q05941); test: Binding affinity towards Nicotinic acetylcholine receptor alpha-7 using [3H]-MLA as radioligand
[2] = target: Neuronal acetylcholine receptor; alpha4/beta2 (Rattus norvegicus, UniProt P09483+P12390); test: Binding affinity towards Nicotinic acetylcholine receptor alpha4-beta2 using [3H]nicotine as radioligand; type: protein-complex assay
Sequence of Neuronal acetylcholine receptor; alpha4/beta2 (P09483 whole entry): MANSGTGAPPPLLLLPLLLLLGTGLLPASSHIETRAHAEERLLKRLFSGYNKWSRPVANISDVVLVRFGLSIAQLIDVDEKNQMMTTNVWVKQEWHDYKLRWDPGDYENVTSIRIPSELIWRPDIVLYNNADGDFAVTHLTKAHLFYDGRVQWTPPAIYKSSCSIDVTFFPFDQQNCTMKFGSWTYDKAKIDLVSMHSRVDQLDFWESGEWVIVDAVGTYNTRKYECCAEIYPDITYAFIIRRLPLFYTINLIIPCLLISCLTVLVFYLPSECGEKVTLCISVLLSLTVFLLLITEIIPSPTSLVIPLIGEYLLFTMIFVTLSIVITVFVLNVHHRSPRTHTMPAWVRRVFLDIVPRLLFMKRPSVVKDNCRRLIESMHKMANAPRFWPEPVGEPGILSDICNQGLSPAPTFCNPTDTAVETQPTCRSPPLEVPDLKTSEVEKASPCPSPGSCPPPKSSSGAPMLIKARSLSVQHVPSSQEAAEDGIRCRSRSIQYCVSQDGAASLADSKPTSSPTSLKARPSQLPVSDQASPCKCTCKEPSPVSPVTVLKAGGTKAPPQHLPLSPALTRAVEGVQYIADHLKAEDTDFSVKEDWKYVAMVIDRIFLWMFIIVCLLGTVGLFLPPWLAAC
Sequence of Neuronal acetylcholine receptor; alpha4/beta2 (P12390 whole entry): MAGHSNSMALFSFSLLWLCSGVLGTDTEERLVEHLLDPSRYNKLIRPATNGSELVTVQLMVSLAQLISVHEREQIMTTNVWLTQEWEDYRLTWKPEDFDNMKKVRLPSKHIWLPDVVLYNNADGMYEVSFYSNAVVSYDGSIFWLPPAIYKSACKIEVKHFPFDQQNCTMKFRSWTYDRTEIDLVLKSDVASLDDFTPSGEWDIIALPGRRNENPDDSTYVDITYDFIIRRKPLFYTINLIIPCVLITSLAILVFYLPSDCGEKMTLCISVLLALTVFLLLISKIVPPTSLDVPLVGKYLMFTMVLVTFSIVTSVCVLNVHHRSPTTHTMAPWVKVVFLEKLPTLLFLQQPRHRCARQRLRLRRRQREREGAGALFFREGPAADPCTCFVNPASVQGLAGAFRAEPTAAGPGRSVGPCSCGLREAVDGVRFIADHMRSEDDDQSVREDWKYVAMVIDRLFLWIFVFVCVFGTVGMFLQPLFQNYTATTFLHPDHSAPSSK

[3] = target: Neuronal acetylcholine receptor alpha3/beta4 (Homo sapiens); test: Binding affinity towards alpha3-beta4 subtype of neuronal nicotinic acetylcholine receptor (nAChR) using [3H]epibatidine as radioligand

Sequence of Neuronal acetylcholine receptor subunit alpha-7 (Q05941 whole entry): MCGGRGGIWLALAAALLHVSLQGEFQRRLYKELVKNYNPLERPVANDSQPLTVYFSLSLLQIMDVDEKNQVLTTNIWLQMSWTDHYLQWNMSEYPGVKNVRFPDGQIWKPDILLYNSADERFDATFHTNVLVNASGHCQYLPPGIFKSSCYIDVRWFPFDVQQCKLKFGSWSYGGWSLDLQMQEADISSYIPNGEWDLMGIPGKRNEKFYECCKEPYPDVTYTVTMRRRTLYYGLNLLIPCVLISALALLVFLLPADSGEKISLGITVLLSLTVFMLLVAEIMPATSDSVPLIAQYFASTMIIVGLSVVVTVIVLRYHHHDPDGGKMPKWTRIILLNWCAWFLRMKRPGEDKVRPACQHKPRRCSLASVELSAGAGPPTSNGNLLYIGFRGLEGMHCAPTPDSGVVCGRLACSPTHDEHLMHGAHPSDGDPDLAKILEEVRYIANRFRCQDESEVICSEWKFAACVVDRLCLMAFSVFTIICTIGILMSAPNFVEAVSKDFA

Clc1ccc(C2=CCC[C@@H]3CC[C@H]2N3)cn1
Ki [1]: 2.76 µM

C1=C(c2ccc(-c3ccccc3)nc2)C2CCC(CC1)N2 (centres undefined)
Ki [2]: 0.0214 µM | Ki [1]: 1.31 µM

C1=C(c2cccnc2-c2ccccc2)C2CCC(CC1)N2 (centres undefined)
Ki [3]: > 50 µM | Ki [2]: > 50 µM | Ki [1]: > 50 µM

C1=C(c2cccnc2)C2CCC(CC1)N2 (centres undefined)
Ki [2]: 0.00043 µM | Ki [1]: 0.089 µM

C1=C(c2cnccc2-c2ccccc2)C2CCC(CC1)N2 (centres undefined)
Ki [3]: 1.99 µM | Ki [2]: 0.234 µM | Ki [1]: 0.927 µM

C1=C(c2cncc(-c3ccccc3)c2)C2CCC(CC1)N2 (centres undefined)
Ki [3]: 0.468 µM | Ki [2]: 0.0048 µM | Ki [1]: 16 µM
